From US20090023645A1, “AIB1, a novel steroid receptor co-activator” (The Government of the United States of America as …, priority 1997, published 2009)

Assays:
ER = experiment: transient transfection ER reporter (luciferase) transcription assay in COS-1 cells; assay type: cell-based; settings: 100 nM 4-hydroxytamoxifen in place of 17β-estradiol
Protocol: COS-1 cells were transiently transfected with 250 ng ER expression vector (pHEGO-hyg), 10 ng of luciferase reporter plasmid (pGL3.luc.3ERE or 10 ng pGL3 lacking ERE) and increasing amounts of pcDNA3.1-AIB1 and incubated in the absence (open bars) or presence of 10 nM 17β-stradiol (E2, solid bars) or 100 nM 4-hydroxytamoxifen (hatched bars). Luciferase activity was expressed in relative luminescence units (RLU). The data are the mean of three determinations from one of four replicate experiments. Error bars indicate one standard deviation.
To determine whether expression of AIB1 increases ER ligand-dependent transactivation, transient transfection assays were performed. The effect of increasing levels of AIB1 on transcription of an ER dependent reporter was measured. […] This effect was not observed when the estrogen antagonist, 4-hydroxytamoxifen (4-OHT), was substituted for 17β-estradiol or when the estrogen response element (ERE) was removed from the reporter plasmid (FIG. 3).
To determine the effect of AIB1 on estrogen-dependent transcription, an ER reporter plasmid can be used. […] Reporter activities were determined using the Dual-Luciferase Reporter Assay System (Promega) and the results expressed in relative luminescence units (RLU; luciferase/Renilla luciferase). pRL-CMV and pGL3-promoter were obtained from Promega. pHEGO-hyg was obtained from ATCC. […]

recurrent breast cancer = experiment: response to tamoxifen therapy in patients with recurrent breast cancer and ER-positive primary tumors; assay type: in vivo
Protocol: Loss of estrogen receptor in recurrent breast caner is also associated with poor response to endocrine therapy. […] The frequency of hormone receptor status changes between primary and recurrent tumors and whether such a change might explain unresponsiveness to endocrine therapy was examined. Primary breast cancer samples and matched asynchronous recurrences were studied from 50 patients who had not received any adjuvant therapy. ER and progesterone receptor (PR) status was determined immunohistochemically from histologically representative formalin-fixed paraffin-embedded tumor samples. ER status was ascertained by mRNA in situ hybridization. Thirty-five (70%) of 50 primary tumors were positive for ER and 30 (60%) for PR. Hormone receptor status of the recurrent tumor differed from that of the primary tumor in 18 cases (36%). Discordant cases were due to the loss of ER (n=6), loss of PR (n=6), or loss of both receptors (n=6). Receptor-negative primary tumors were always accompanied by receptor-negative recurrences. Among 27 patients with ER-positive primary tumors, loss of ER was a significant predictor (P=0.0085) of poor response to subsequent endocrine therapy. […] Loss of ER expression in recurrent breast cancer predicts poor response to endocrine therapy in primarily ER-positive patients.

metastatic tumor = experiment: tamoxifen treatment of a patient whose metastatic breast tumor showed high AIB1 copy number; assay type: in vivo; settings: one post-menopausal patient, ER/PR positive metastatic tumor with high AIB1 copy number

Row | Molecule | AIB1 dose dependent increase in transcription when the ligand is substituted for 17β-estradiol (ER) | response rate to tamoxifen therapy (recurrent breast cancer; patients whose recurrent tumors retained ER expression (14 of 19)) | response rate to tamoxifen therapy (recurrent breast cancer; patients with lost ER expression in the recurrent tumor (one of eight)) | patient response to tamoxifen treatment (metastatic tumor)
1 | 4-hydroxytamoxifen | not observed |  |  | 
2 | CC/C(=C(\c1ccccc1)c1ccc(OCCN(C)C)cc1)c1ccccc1 [tamoxifen] |  | 74% | 12.5% | responded favorably
